The results in this text go back to patent publication US20130267494A1, “1,4-OXAZEPANE DERIVATIVES” (priority 2010, published 2013).

Structures are written as SMILES. Structures can show the parent of a compound that is named as a salt. Where two headings read alike, the source gives them in different places.

For test [1], the target named is T1, human dopamine transporter (Homo sapiens, UniProt Q01959).
T1 construct: expressed in transfected cells
Description: Inhibitory action on human dopamine transporter ([3H]-dopamine uptake in CHO cells). The format is cell-based. As to conditions: CHO, relative to inhibitory activity of 100 μM Nomifensine as 100%, read-out: inhibitory rate (%); for inhibition at 1 µM: compound 1 μM. In a few lines:
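CHO-K1 cells stably expressing human dopamine transporter, exposed to compound at 10 μM or 1 μM in HEPES-buffered saline with 0.5% BSA. [3H]-dopamine uptake measured over 60 min by scintillation counting. Activity expressed relative to 100 μM nomifensine as 100%.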

For test [2], the target named is T2, human norepinephrine transporter (Homo sapiens, UniProt P23975).
T2 construct: expressed in transfected cells
T2 sequence (P23975 whole entry): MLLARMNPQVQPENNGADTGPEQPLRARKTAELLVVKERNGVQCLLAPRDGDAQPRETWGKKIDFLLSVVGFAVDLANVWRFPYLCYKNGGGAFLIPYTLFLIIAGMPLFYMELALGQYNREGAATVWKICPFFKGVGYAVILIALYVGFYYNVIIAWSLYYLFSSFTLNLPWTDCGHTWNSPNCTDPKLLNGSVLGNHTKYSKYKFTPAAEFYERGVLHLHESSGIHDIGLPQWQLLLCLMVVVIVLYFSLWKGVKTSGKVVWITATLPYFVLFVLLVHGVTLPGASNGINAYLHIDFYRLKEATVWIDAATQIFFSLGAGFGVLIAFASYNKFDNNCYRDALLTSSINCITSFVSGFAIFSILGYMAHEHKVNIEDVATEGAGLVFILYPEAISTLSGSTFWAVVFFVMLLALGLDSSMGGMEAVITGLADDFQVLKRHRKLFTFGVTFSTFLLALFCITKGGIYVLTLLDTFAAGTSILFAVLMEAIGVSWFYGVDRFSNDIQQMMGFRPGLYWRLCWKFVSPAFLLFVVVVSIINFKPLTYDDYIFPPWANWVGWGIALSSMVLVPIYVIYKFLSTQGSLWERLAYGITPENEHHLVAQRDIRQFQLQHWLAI
Description: Inhibitory action on human norepinephrine transporter ([3H]-norepinephrine uptake in CHO cells). Type of test: cell-based. The settings on record: CHO, relative to inhibitory activity of 10 μM DMI as 100%. Put shortly: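 Stably transfected CHO-K1 cells plated overnight, then given test compound and [3H]-norepinephrine (20 nM final, from 200 nM) in HEPES-buffered saline with 0.5% BSA for 45 min. After PBS washes, retained radioactivity counted by scintillation. Inhibition at 10 μM or 1 μM compound expressed relative to 10 μM DMI as 100%.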

Setting [3] is: read-out: inhibitory rate (%), compound 1 μM.
Setting [4] is: compound 1 μM, read-out: inhibitory rate (%).

T1 sequence (Q01959 whole entry): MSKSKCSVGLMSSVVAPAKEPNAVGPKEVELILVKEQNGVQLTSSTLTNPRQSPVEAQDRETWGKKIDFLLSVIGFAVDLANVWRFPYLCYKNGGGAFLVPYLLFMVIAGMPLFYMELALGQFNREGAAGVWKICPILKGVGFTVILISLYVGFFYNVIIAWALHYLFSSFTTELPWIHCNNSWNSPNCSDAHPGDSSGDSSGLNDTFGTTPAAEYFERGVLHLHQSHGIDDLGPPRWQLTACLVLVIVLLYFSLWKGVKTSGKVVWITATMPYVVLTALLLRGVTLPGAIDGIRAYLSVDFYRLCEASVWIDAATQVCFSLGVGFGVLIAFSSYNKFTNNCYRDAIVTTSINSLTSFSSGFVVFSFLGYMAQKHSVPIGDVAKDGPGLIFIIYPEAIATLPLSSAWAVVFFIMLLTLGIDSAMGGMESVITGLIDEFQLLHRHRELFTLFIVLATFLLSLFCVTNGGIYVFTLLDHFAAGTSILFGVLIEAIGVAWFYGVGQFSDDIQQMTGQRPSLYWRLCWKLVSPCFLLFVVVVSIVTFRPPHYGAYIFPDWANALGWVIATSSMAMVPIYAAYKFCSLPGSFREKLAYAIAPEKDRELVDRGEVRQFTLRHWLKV

With `CC(=O)NC[C@H]1CNCCO[C@@H]1c1ccc(Cl)c(Cl)c1` (racemic) [Example 6, N-{[(6RS,7SR)-7-(3,4-dichlorophenyl)-1,4-oxazepan-6-yl]methyl}acetamide monohydrochloride], the values for the inhibition at 1 µM in test [1] and in test [2] (setting [3]) were 33% and 95%, respectively. The inhibition at 10 µM came out at 84% in test [1] (compound 10 μM) and 97% in test [2] (read-out: inhibitory rate (%), compound 10 μM).
On to `O=c1[nH]c(-c2cccn(C[C@@H]3CNCCO[C@H]3c3ccc(Cl)c(Cl)c3)c2=O)no1` [Example 31, 1-{[(6S,7R)-7-(3,4-dichlorophenyl)-1,4-oxazepan-6-yl]methyl}-3-(5-oxo-4,5-dihydro-1,2,4-oxadiazol-3-yl)pyridin-2(1H)-one monohydrochloride], for which the inhibition at 1 µM turned out to be 33% in test [1] and 108% in test [2] (setting [4]).
Consider `CC(=O)NC[C@@H]1CNCCO[C@H]1c1ccc(Cl)c(Cl)c1` [Example 32, N-{[(6S,7R)-7-(3,4-dichlorophenyl)-1,4-oxazepan-6-yl]methyl}acetamide 0.5 fumarate], for which the results for the inhibition at 1 µM in test [1] and in test [2] (setting [3]) were 34% and 93%, respectively.
For the compound `COCC(=O)NC[C@@H]1CNCCO[C@H]1c1ccc(Cl)c(Cl)c1` [Example 33, N-{[(6S,7R)-7-(3,4-dichlorophenyl)-1,4-oxazepan-6-yl]methyl}-2-methoxyacetamide monohydrochloride], the results for the inhibition at 1 µM in test [1] and in test [2] (setting [4]) were 35% and 100%, respectively.
For the compound `CC(=O)N[C@@H]1CNCCO[C@H]1c1ccc(Cl)c(Cl)c1` [Example 36, N-[(6R,7S)-7-(3,4-dichlorophenyl)-1,4-oxazepan-6-yl]acetamide monofumarate], the inhibition at 1 µM in test [1] amounted to 53%; in test [2] (setting [3]), 101%.
For `NS(=O)(=O)N[C@@H]1CNCCO[C@H]1c1ccc(Cl)c(Cl)c1` [Example 37, N-[(6R,7S)-7-(3,4-dichlorophenyl)-1,4-oxazepan-6-yl]sulfamide monohydrochloride], the inhibition at 1 µM stood at 51% in test [1] and 102% in test [2] (setting [4]).
The like results for `COCC(=O)NC[C@@H]1CNCCO[C@H]1c1ccc(Cl)c(F)c1` [Example 38, N-{[(6S,7R)-7-(4-chloro-3-fluorophenyl)-1,4-oxazepan-6-yl]methyl}-2-methoxyacetamide monohydrochloride] were, in that order, 11% and 102%.
The like results for `[2H]C([2H])([2H])OCC(=O)NC[C@@H]1CNCCO[C@H]1c1ccc(Cl)c(F)c1` [Example 39, N-{[(6S,7R)-7-(4-chloro-3-fluorophenyl)-1,4-oxazepan-6-yl]methyl}-2-[(^2H3)methyloxy]acetamide monohydrochloride] were, in that order, 17% and 102%.
The like results for `CCOCC(=O)NC[C@@H]1CNCCO[C@H]1c1ccc(Cl)c(F)c1` [Example 40, N-{[(6S,7R)-7-(4-chloro-3-fluorophenyl)-1,4-oxazepan-6-yl]methyl}-2-ethoxyacetamide monohydrochloride] were, in that order, 9% and 104%.
As to `CC(C)OCC(=O)NC[C@@H]1CNCCO[C@H]1c1ccc(Cl)c(F)c1` [Example 41, N-{[(6S,7R)-7-(4-chloro-3-fluorophenyl)-1,4-oxazepan-6-yl]methyl}-2-(1-methylethoxy)acetamide monohydrochloride], the inhibition at 1 µM in test [1] was determined as 11%; in test [2] (setting [4]), 101%.
As for `O=c1[nH]c(-c2cccn(C[C@@H]3CNCCO[C@H]3c3ccc(Cl)c(F)c3)c2=O)no1` [Example 43, 1-{[(6S,7R)-7-(4-chloro-3-fluorophenyl)-1,4-oxazepan-6-yl]methyl}-3-(5-oxo-4,5-dihydro-1,2,4-oxadiazol-3-yl)pyridin-2(1H)-one monohydrochloride], the inhibition at 1 µM was determined as 15% in test [1] and 102% in test [2] (setting [3]).
On to `O=C(O)c1cccn(C[C@@H]2CNCCO[C@H]2c2ccc(Cl)c(F)c2)c1=O` [Example 44, 1-{[(6S,7R)-7-(4-chloro-3-fluorophenyl)-1,4-oxazepan-6-yl]methyl}-2-oxo-1,2-dihydropyridine-3-carboxylic acid monohydrochloride], for which the figures for the inhibition at 1 µM in test [1] and in test [2] (setting [4]) were 8% and 102%, respectively.
Turning to `OC[C@H](O)[C@@H]1OCCNC[C@H]1c1ccc(Cl)c(Cl)c1` [Example 45, (1S)-1-[(6R,7R)-6-(3,4-dichlorophenyl)-1,4-oxazepan-7-yl]ethane-1,2-diol monohydrochloride], the results for the inhibition at 1 µM in test [1] and in test [2] (setting [4]) were 52% and 105%, respectively.
Taken in the same sequence, the figures for `O=c1[nH]c(-c2cccnc2O[C@@H]2CNCCO[C@H]2c2ccc(Cl)c(F)c2)no1` [Example 556, 3-(2-{[(6R,7S)-7-(4-chloro-3-fluorophenyl)-1,4-oxazepan-6-yl]oxy}pyridin-3-yl)-1,2,4-oxadiazol-5(4H)-one monohydrochloride] were 71% and 101%.
The like results for `O=c1[nH]c(-c2ccccc2O[C@@H]2CNCCO[C@H]2c2ccc(Cl)c(F)c2)no1` [Example 577, 3-(2-{[(6R, 7S)-7-(4-chloro-3-fluoro-phenyl)-1,4-oxazepan-6-yl]oxy}phenyl)-1,2,4-oxadiazol-5(4H)-one] were, in that order, 53% and 97%.
The like results for `O=c1[nH]c(-c2ncccc2O[C@@H]2CNCCO[C@H]2c2ccc(Cl)c(F)c2)no1` [Example 584, 3-(3-{[(6R, 7S)-7-(4-chloro-3-fluorophenyl)-1,4-oxazepan-6-yl]oxy}pyridin-2-yl)-1,2,4-oxadiazol-5(4H)-one] were, in that order, 57% and 107%.
